Experimental data reported in patent publication US20130065818A1, “Arylamide Compounds And Compositions And Uses Thereof” (POLYMEDIX, priority 2006, published 2013).
In brackets after ≈: the same amount, converted by molar mass. Read-outs that look alike come from different tables or passages of the source.

Legend:
[1] = tested on: Staphylococcus aureus fluoroquinolone-resistant; experiment: MIC, 25 ocular isolates, broth microdilution (Example 8); type: cell-based
Experimental: (§1) • Mueller-Hinton Broth in tubes was inoculated with 25 ocular isolates of Staphylococcus aureus fluoroquinolone-susceptible, Staphylococcus aureus fluoroquinolone-resistant, Staphylococcus epidermidis (Coagulase-negative Staphylococcus) fluoroquinolone-susceptible, Staphylococcus epidermidis (Coagulase-negative Staphylococcus) fluoroquinolone-resistant, Pseudomonas aeruginosa and Serratia marcescens, plus two controls (Staphylococcus aureus and E. coli) and incubated at 37° C. overnight on a shaker set at 250 rpm.
(§2) On the day of testing, a 640 μg/ml (1280 μg/ml for Serratia marcescens and Pseudomonas aeruginosa) concentration was prepared from a 1% stock solution in 0.01% acetic acid, 0.2% BSA in polypropylene tubes.
(§3) Serial doubling dilutions in 0.01% acetic acid, 0.2% BSA in 96 well polypropylene plates, which are used as reservoirs for the inoculation of the test plates, were carried out to obtain serial dilutions of test agents at 10 times the required test concentrations: 640, 320, 160, 80, 40, 20, 10, 5, 2.5, 1.25, and 0.625 μg/ml (1280, 640, 320, 160, 80, 40, 20, 10, 5, 2.5, and 1.25 μg/ml for Serratia marcescens and Pseudomonas aeruginosa).
(§4) Ten μl of diluted 10×test agents was added to each well of one row of the 96 well polypropylene plates from column 2 to column 12 (column 1 is a control for bacteria alone, with no peptide). Test agent concentrations in columns 2-12 were as follows: 64, 32, 16, 8, 4, 2, 1, 0.5, 0.25, 0.125, and 0.0625 μg/ml (128, 64, 32, 16, 8, 4, 2, 1, 0.5, 0.25, and 0.125 μg/ml for Serratia marcescens and Pseudomonas aeruginosa). The same peptide was in each of the 8 rows. One plate contained dilutions of one test agent and 8 bacterial isolates.
(§5) On the day of testing, the overnight bacterial broth cultures of Staphylococcus aureus fluoroquinolone-susceptible, Staphylococcus aureus fluoroquinolone-resistant, Staphylococcus epidermidis (Coagulase-negative Staphylococcus) fluoroquinolone-susceptible, Staphylococcus epidermidis (Coagulase-negative Staphylococcus) fluoroquinolone-resistant, Serratia marcescens, and Pseudomonas aeruginosa, plus two controls (Staphylococcus aureus and E. coli) were diluted in 5 ml of trypticase soy broth to yield turbidity equal to a 0.5 McFarland standard. The final inoculum for MIC testing for Staphylococcus aureus fluoroquinolone-susceptible, Staphylococcus aureus fluoroquinolone-resistant, Staphylococcus epidermidis (Coagulase-negative Staphylococcus) fluoroquinolone-susceptible, Staphylococcus epidermidis (Coagulase-negative Staphylococcus) fluoroquinolone-resistant, Serratia marcescens, and Pseudomonas aeruginosa was achieved by placing 0.05 ml of the turbidity adjusted sample to 5 ml of Mueller-Hinton broth.
(§6) Ninety μl of the bacterial suspensions was dispensed in each well from column 1 to column 12. Each bacterial isolate was placed in one row of a 96 well polypropylene plate containing the test agents. The plates were placed on shaker at 15 minutes at room temperature, and then incubated at 37° C. overnight. MICs were determined visually as the lowest concentration of drug that inhibits visible bacterial growth.

[2] = tested on: Staphylococcus epidermidis (Coagulase-negative Staphylococcus) fluoroquinolone-resistant; experiment: as above; type: cell-based
Experimental: as §1, §2, §3, §4, §5, §6

N=C(N)NCCCCC(=O)Nc1cc(C(F)(F)F)cc(NC(=O)c2cc(C(=O)Nc3cc(C(F)(F)F)cc(NC(=O)CCCCNC(=N)N)c3O[C@@H]3CCNC3)ncn2)c1O[C@@H]1CCNC1 [Oligomer 4]
MIC50 ([1]; 25 isolates, Row 13): 0.25 µg/mL (≈ 0.267 µM) | MIC90 ([1]; 25 isolates, Row 22): 0.5 µg/mL (≈ 0.534 µM) | Range of MICs ([1]; 25 isolates, Summary of Results): 0.125 to 1.0 µg/mL | MIC ([1]; Staphylococcus aureus, 25 ocular isolates, read-out: Median MIC): ≤ 0.25 µg/mL | MIC ([1]; Staphylococcus aureus, isolate 1—E504, read-out: MIC): 0.25 µg/mL (≈ 0.267 µM) | MIC ([1]; Staphylococcus aureus, isolate 2—E475, read-out: MIC): 0.25 µg/mL (≈ 0.267 µM) | MIC ([1]; Staphylococcus aureus, isolate 3—E442, read-out: MIC): 0.25 µg/mL (≈ 0.267 µM) | MIC ([1]; Staphylococcus aureus, isolate 4—E427, read-out: MIC): 0.5 µg/mL (≈ 0.534 µM) | MIC ([1]; Staphylococcus aureus, isolate 5—E425, read-out: MIC): 0.25 µg/mL (≈ 0.267 µM) | MIC ([1]; Staphylococcus aureus, isolate 6—E424, read-out: MIC): 0.25 µg/mL (≈ 0.267 µM) | MIC ([1]; Staphylococcus aureus, isolate 7—E417, read-out: MIC): 1 µg/mL (≈ 1.07 µM) | MIC ([1]; Staphylococcus aureus, isolate 8—E407, read-out: MIC): 0.25 µg/mL (≈ 0.267 µM) | MIC ([1]; Staphylococcus aureus, isolate 9—E401, read-out: MIC): 0.25 µg/mL (≈ 0.267 µM) | MIC ([1]; Staphylococcus aureus, isolate 10—K1659, read-out: MIC): 0.25 µg/mL (≈ 0.267 µM) | MIC ([1]; Staphylococcus aureus, isolate 11—E96, read-out: MIC): 0.125 µg/mL (≈ 0.133 µM) | MIC ([1]; Staphylococcus aureus, isolate 12—E379, read-out: MIC): 0.5 µg/mL (≈ 0.534 µM) | MIC ([1]; Staphylococcus aureus, isolate 13—E369, read-out: MIC): 0.125 µg/mL (≈ 0.133 µM) | MIC ([1]; Staphylococcus aureus, isolate 14—E361, read-out: MIC): 0.25 µg/mL (≈ 0.267 µM) | MIC ([1]; Staphylococcus aureus, isolate 15—E339, read-out: MIC): 0.25 µg/mL (≈ 0.267 µM) | MIC ([1]; Staphylococcus aureus, isolate 16—E333, read-out: MIC): 0.25 µg/mL (≈ 0.267 µM) | MIC ([1]; Staphylococcus aureus, isolate 17—E332, read-out: MIC): 0.25 µg/mL (≈ 0.267 µM) | MIC ([1]; Staphylococcus aureus, isolate 18—E327, read-out: MIC): 0.5 µg/mL (≈ 0.534 µM) | MIC ([1]; Staphylococcus aureus, isolate 19—E325, read-out: MIC): 0.5 µg/mL (≈ 0.534 µM) | MIC ([1]; Staphylococcus aureus, isolate 20—K950, read-out: MIC): 0.5 µg/mL (≈ 0.534 µM) | MIC ([1]; Staphylococcus aureus, isolate 21—K839, read-out: MIC): 0.25 µg/mL (≈ 0.267 µM) | MIC ([1]; Staphylococcus aureus, isolate 22—K1679, read-out: MIC): 0.25 µg/mL (≈ 0.267 µM) | MIC ([1]; Staphylococcus aureus, isolate 23—K1677, read-out: MIC): 0.25 µg/mL (≈ 0.267 µM) | MIC ([1]; Staphylococcus aureus, isolate 24—K1672, read-out: MIC): 0.25 µg/mL (≈ 0.267 µM) | MIC ([1]; Staphylococcus aureus, isolate 25—K1670, read-out: MIC): 0.25 µg/mL (≈ 0.267 µM) | MIC ([1]; Staphylococcus aureus, n=25 per group, read-out: Median MIC): 0.25 µg/mL (≈ 0.267 µM) | MIC50 ([1]; Staphylococcus aureus, 25 isolates, Summary of Results, read-out: MIC50): 0.25 µg/mL (≈ 0.267 µM) | MIC90 ([1]; Staphylococcus aureus, 25 isolates, Summary of Results, read-out: MIC90): 0.5 µg/mL (≈ 0.534 µM) | MIC ([1]; Staphylococcus aureus, 25 isolates, Summary of Results, read-out: Median MIC): 0.25 µg/mL (≈ 0.267 µM) | MIC50 ([1]; n=25 per group): 0.25 µg/mL (≈ 0.267 µM) | MIC90 ([1]; n=25 per group): 0.5 µg/mL (≈ 0.534 µM) | Range of MICs ([1]; n=25 per group): 0.125 to 1.0 µg/mL | MIC, sorted list for MIC50 and MIC90 Determinations (QRSE-A) ([2]; 25 isolates sorted ascending, Row 1-25, <0.0625 was Replaced with 0.03125): 0.25 µg/mL | MIC50 ([2]; 25 isolates, Row 13): 0.125 µg/mL (≈ 0.133 µM) | MIC90 ([2]; 25 isolates, Row 22): 0.25 µg/mL (≈ 0.267 µM) | Range of MICs ([2]; 25 isolates, Summary of Results, <0.0625 was Replaced with 0.03125): 0.03125 to 0.25 µg/mL | MIC ([2]; Staphylococcus epidermidis, 25 ocular isolates, read-out: Median MIC): ≤ 0.25 µg/mL | MIC ([2]; Staphylococcus epidermidis, isolate 1—E515, read-out: MIC): 0.125 µg/mL (≈ 0.133 µM) | MIC ([2]; Staphylococcus epidermidis, isolate 2—E514, read-out: MIC): < 0.0625 µg/mL | MIC ([2]; Staphylococcus epidermidis, isolate 3—E513, read-out: MIC): 0.125 µg/mL (≈ 0.133 µM) | MIC ([2]; Staphylococcus epidermidis, isolate 4—E510, read-out: MIC): < 0.0625 µg/mL | MIC ([2]; Staphylococcus epidermidis, isolate 5—E509, read-out: MIC): 0.125 µg/mL (≈ 0.133 µM) | MIC ([2]; Staphylococcus epidermidis, isolate 6—E508, read-out: MIC): 0.125 µg/mL (≈ 0.133 µM) | MIC ([2]; Staphylococcus epidermidis, isolate 7—E505, read-out: MIC): 0.125 µg/mL (≈ 0.133 µM) | MIC ([2]; Staphylococcus epidermidis, isolate 8—E503, read-out: MIC): 0.125 µg/mL (≈ 0.133 µM) | MIC ([2]; Staphylococcus epidermidis, isolate 9—E502, read-out: MIC): 0.125 µg/mL (≈ 0.133 µM) | MIC ([2]; Staphylococcus epidermidis, isolate 10—E499, read-out: MIC): 0.125 µg/mL (≈ 0.133 µM) | MIC ([2]; Staphylococcus epidermidis, isolate 11—E498, read-out: MIC): 0.125 µg/mL (≈ 0.133 µM) | MIC ([2]; Staphylococcus epidermidis, isolate 12—E494, read-out: MIC): < 0.0625 µg/mL | MIC ([2]; Staphylococcus epidermidis, isolate 13—E493, read-out: MIC): 0.125 µg/mL (≈ 0.133 µM) | MIC ([2]; Staphylococcus epidermidis, isolate 14—E485, read-out: MIC): 0.125 µg/mL (≈ 0.133 µM) | MIC ([2]; Staphylococcus epidermidis, isolate 15—E487, read-out: MIC): 0.125 µg/mL (≈ 0.133 µM) | MIC ([2]; Staphylococcus epidermidis, isolate 16—E486, read-out: MIC): < 0.0625 µg/mL | MIC ([2]; Staphylococcus epidermidis, isolate 17—E480, read-out: MIC): 0.125 µg/mL (≈ 0.133 µM) | MIC ([2]; Staphylococcus epidermidis, isolate 18—E475, read-out: MIC): 0.25 µg/mL (≈ 0.267 µM) | MIC ([2]; Staphylococcus epidermidis, isolate 19—E471, read-out: MIC): 0.125 µg/mL (≈ 0.133 µM) | MIC ([2]; Staphylococcus epidermidis, isolate 20—E458, read-out: MIC): 0.125 µg/mL (≈ 0.133 µM) | MIC ([2]; Staphylococcus epidermidis, isolate 21—E452, read-out: MIC): 0.25 µg/mL (≈ 0.267 µM) | MIC ([2]; Staphylococcus epidermidis, isolate 22—E450, read-out: MIC): 0.125 µg/mL (≈ 0.133 µM) | MIC ([2]; Staphylococcus epidermidis, isolate 23—E440, read-out: MIC): 0.25 µg/mL (≈ 0.267 µM) | MIC ([2]; Staphylococcus epidermidis, isolate 24—E446, read-out: MIC): 0.125 µg/mL (≈ 0.133 µM) | MIC ([2]; Staphylococcus epidermidis, isolate 25—E444, read-out: MIC): 0.25 µg/mL (≈ 0.267 µM) | MIC ([2]; Staphylococcus epidermidis, n=25 per group, read-out: Median MIC): 0.125 µg/mL (≈ 0.133 µM) | MIC50 ([2]; Staphylococcus epidermidis, 25 isolates, Summary of Results, read-out: MIC50): 0.125 µg/mL (≈ 0.133 µM) | MIC90 ([2]; Staphylococcus epidermidis, 25 isolates, Summary of Results, read-out: MIC90): 0.25 µg/mL (≈ 0.267 µM) | MIC ([2]; Staphylococcus epidermidis, 25 isolates, Summary of Results, read-out: Median MIC): 0.125 µg/mL (≈ 0.133 µM) | MIC50 ([2]; n=25 per group): 0.125 µg/mL (≈ 0.133 µM) | MIC90 ([2]; n=25 per group): 0.25 µg/mL (≈ 0.267 µM) | Range of MICs ([2]; n=25 per group): 0.03125 to 0.25 µg/mL
